Measurements published in patent US20210187012A1, “ANTI-COAGULANT AGENT, ANTICOAGULATION DEVICE, BLOOD COAGULATION CURING METHOD, VASCULAR ENDOTHELIAL CELL FUNCTION IMPROVING METHOD, AND METABOLISM IMPROVING METHOD” (H2BANK CO., LTD., priority 2018, published 2021).

Tested on: membrane potential of mitochondria
Settings: in the presence of molecular hydrogen

[HH] [hydrogen]
signal of TMRE (membrane potential) reduced: about 10%
